Reference: article PMC12606464, “Investigating NFE2L1 activators for targeted protein aggregate clearance: a follow-up study” (RSC Medicinal Chemistry, 2025)
Marks after values point to notes of the source that are not given here.

Each compound was assayed on NFE2L1 pathway (assay: 3×PSMA4-ARE-LUC dual luciferase reporter assay in HEK293 cells). Conditions: Homo sapiens; 5 μM, 16 h, HEK293, luminescence relative to DMSO-treated cells; read-out: NFE2L1 activation [5 μM].
Type: cell-based, human
Excerpt: In our previous work,[43] we developed a library of NFE2L1 stimulators using a cell-based luciferase reporter assay. This system was based on three tandem copies of the antioxidant response element (ARE) derived from the NFE2L1 target gene proteasome subunit alpha type-4 (3xPSMA4, PSMA4-ARE-LUC). It was designed to detect the proteasome “bounce-back” response induced by proteasome inhibitors such as MG132 or bortezomib.[22,43,45,46] The reporter assay was adapted to a 384-well format and used to evaluate a new set of RUN compounds designed around the structural framework of the RUN-47 activator. We focused on identifying compounds that increased the 3×PSMA4-ARE-LUC signal (Fig. 1A), while simultaneously assessing cytotoxicity (see the SI, Fig. S2). […] In contrast, thiourea- and urea-containing derivatives generally produced only weak to intermediate responses, rarely exceeding a fold change of 7.
Fig. 1 (A) Targeted library screening of RUN compounds using the 3×PSMA4-ARE-LUC dual reporter assay in HEK293 cells. Cells were exposed to RUN compounds (5 μM) for 16 hours, and luciferase activity was measured. Data are presented as the mean ± SD from three independent experiments (n = 3). Results are shown as a fold change in luminescence relative to DMSO-treated cells. Selected hit compounds are highlighted in distinct colours. (B) RUN-89 specifically activates the NFE2L1 pathway. The DDI2 knockout (KO) and parental (WT) HCT116 cells were transfected with the 3×PSMA4-ARE-LUC reporter and treated with 0.5 μM bortezomib (BTZ) and 5 μM RUN-89 for 16 hours. Data are presented as the Geomean ± GeoSD of three independent experiments (n = 3). Statistical analysis was performed on log2-transformed values using two-way repeated-measures ANOVA followed by Šídak's multiple comparison test. (C) RUN-89 selectively triggers downstream signaling events associated with NFE2L1 gene expression. HEK293 cells were transfected with lipid nanoparticles (LNPs) carrying siRNAs targeting NFE2L1 or NFE2L2. LNPs formulated with non-targeting siRNA served as a negative control. Following 24 hours of incubation, cells were treated with 7.5 μM RUN-89 or DMSO (vehicle) for an additional 16 hours. Expression of the proteasomal subunit gene PSMC4 was then quantified by RT-qPCR. Data are shown as the Geomean ± GeoSD from three independent biological replicates (n = 3). Log2-transformed data were analyzed using two-way repeated-measures ANOVA with the Geisser–Greenhouse correction, followed by Tukey's multiple comparison test with individual variances computed for each comparison. Additional results for NFE2L1, NFE2L2, PSMB7, and PSMD12 are presented in SI Fig. S10.
Figure S1: Concentration–response of luciferase cell-based assay (PSMA4-ARE-luc2P reporter) on treatment with RUN-81, RUN-89, and RUN-94. Concentration is plotted on the X-axis. Dose–response relationships were analyzed using a four-parameter logistic curve (4PL), or a bell-shaped dose-response curve, both with weighting 1/Y^2. Dotted lines represent 95% confidence bands. Calculated EC₅₀ values, curve parameters, and asymmetrical confidence intervals are summarized in the accompanying table . Data are presented as mean ± SD from four independent experiments (n=4).
(§1) 2 Biology Experimental Procedures
(§2) Safety statement: No unexpected or unusually high safety hazards were encountered. […]
Most of the cell lines were cultured in Dulbecco's Modified Eagle Medium (DMEM) enriched with 10% fetal bovine serum (FBS) and 2 mM L-glutamine, under standard conditions of 37 °C with 5% CO₂. DNA transfection was performed with Lipofectamine 2000, following the manufacturer's instructions. Transgenic cells were then selected with either G418 (400 µg/mL) or hygromycin B (450 µg/mL), based on the selection marker encoded by the plasmid used. Cell viability was evaluated using the […]

Structure (SMILES) | fold induction at 5 µM
COCCOCCOCC(=O)NC1C/C(=C\c2ccc(OC)c(OC)c2)C(=O)/C(=C/c2ccc(OC)c(OC)c2)C1 (stereo not drawn) [RUN-88] | 3.9
COc1ccc(/C=C2\CC(NC(=O)CN(C)C)C/C(=C\c3ccc(OC)c(OC)c3)C2=O)cc1OC.O=C(O)C(F)(F)F (stereo not drawn) [RUN-86] | 2
COc1ccc(/C=C2\CC(NC(=O)CCN(C)C)C/C(=C\c3ccc(OC)c(OC)c3)C2=O)cc1OC (stereo not drawn) [RUN-101] | 2
COc1ccc(/C=C2\CN(C(=O)c3ccccn3)C/C(=C\c3ccc(OC)c(OC)c3)C2=O)cc1OC [RUN-108] | 0.9
COc1ccc(/C=C2\CC(NC(=O)CN)C/C(=C\c3ccc(OC)c(OC)c3)C2=O)cc1OC.O=C(O)C(F)(F)F (stereo not drawn) [RUN-92] | 1.6
COc1ccc(/C=C2\CC(NC(=O)c3ncccc3C)C/C(=C\c3ccc(OC)c(OC)c3)C2=O)cc1OC (stereo not drawn) [RUN-93] | 11.9
COc1ccc(/C=C2\CC(NC(=O)CN3CCN(C)CC3)C/C(=C\c3ccc(OC)c(OC)c3)C2=O)cc1OC (stereo not drawn) [RUN-90] | 2.8
COc1ccc(/C=C2\CC(NC(=O)Cn3ccnc3)C/C(=C\c3ccc(OC)c(OC)c3)C2=O)cc1OC (stereo not drawn) [RUN-99] | 1.6
COc1ccc(/C=C2\CC(NC(=O)CCCN(C)C)C/C(=C\c3ccc(OC)c(OC)c3)C2=O)cc1OC (stereo not drawn) [RUN-91] | 1.6
COc1ccc(/C=C2\CC(NC(=O)CCN)C/C(=C\c3ccc(OC)c(OC)c3)C2=O)cc1OC (stereo not drawn) [RUN-104] | 0.8
COc1ccc(/C=C2\CN(C(=O)c3ncccc3C)C/C(=C\c3ccc(OC)c(OC)c3)C2=O)cc1OC [RUN-107] | 5
COc1ccc(/C=C2\CN(C(=O)C34CCN(CC3)CC4)C/C(=C\c3ccc(OC)c(OC)c3)C2=O)cc1OC [RUN-83] | 1.5
COc1ccc(/C=C2\CN(C(=O)C3CCCN3)C/C(=C\c3ccc(OC)c(OC)c3)C2=O)cc1OC (stereo not drawn) [RUN-113] | 3.8
COc1ccc(/C=C2\CN(C(=O)CN3CCOCC3)C/C(=C\c3ccc(OC)c(OC)c3)C2=O)cc1OC.O=C(O)C(F)(F)F [RUN-112] | 6.6
COc1ccc(/C=C2\CN(C(=O)Cn3ccnc3)C/C(=C\c3ccc(OC)c(OC)c3)C2=O)cc1OC [RUN-111] | 2.7
COc1ccc(/C=C2\CN(C(=O)CN)C/C(=C\c3ccc(OC)c(OC)c3)C2=O)cc1OC [RUN-85] | 2.7
COc1ccc(/C=C2\CN(C(=O)Cc3c[nH]cn3)C/C(=C\c3ccc(OC)c(OC)c3)C2=O)cc1OC [RUN-109] | 4.3

The compounds below were run on HEK293 cells (assay: alamarBlue cytotoxicity assessment in HEK293 cells). Conditions: HEK293, alamarBlue, 16 h; concentration not given.
Type: cell-based, human
Description: Figure S2: Concentration-dependent cytotoxicity assessment of RUN compounds.
HEK293 cells were treated for 16 hours with increasing concentrations of RUN compounds (1.25 µM; 2.5 µM; 5; 7.5 and 10 µM) or DMSO (negative control). Cell viability was determined using the alamarBlue assay following the protocol of Riss.(1) Data are presented as means ± SD from three independent experiments (n = 3). Statistical analysis was done using repeated measures one-way ANOVA with Geisser–Greenhouse correction, followed by Dunnett’s multiple comparisons test. *p<0.05. Detailed results of the analysis are shown in […]
(1 picture or pasted object on this page, not shown here)
as §1, §2
Cell lines were sourced from the ATCC (USA) and/or ECACC (UK), namely HCT116 (human colorectal carcinoma), ATCC CCL-247 (RRID:CVCL_0291), HEK-293 (human embryonic kidney), ATCC CRL-1573 (RRID:CVCL_0045), SH-SY5Y (human neuroblastoma), ATCC CRL-2266 (RRID:CVCL_0019). The characteristics of DDI2 knockout cells derived from HCT116 cells have been described previously (Sedlacek et al., 2025). All cell lines were tested for mycoplasma contamination. Most of the cell lines were cultured in Dulbecco's Modified Eagle Medium (DMEM) enriched with 10% fetal bovine serum (FBS) and 2 mM L-glutamine, under standard conditions of 37 °C with 5% CO₂. DNA transfection was performed with Lipofectamine 2000, following the manufacturer's instructions. Transgenic cells were then selected with either G418 (400 µg/mL) or hygromycin B (450 µg/mL), based on the selection marker encoded by the plasmid used. […]

Structure (SMILES) | Tox [% of ctrl.]
COCCOCCOCC(=O)NC1C/C(=C\c2ccc(OC)c(OC)c2)C(=O)/C(=C/c2ccc(OC)c(OC)c2)C1 (stereo not drawn) [RUN-88] | 86% of ctrl.
COc1ccc(/C=C2\CC(NC(=O)CN(C)C)C/C(=C\c3ccc(OC)c(OC)c3)C2=O)cc1OC.O=C(O)C(F)(F)F (stereo not drawn) [RUN-86] | 96% of ctrl.
COc1ccc(/C=C2\CC(NC(=O)CCN(C)C)C/C(=C\c3ccc(OC)c(OC)c3)C2=O)cc1OC (stereo not drawn) [RUN-101] | 97% of ctrl.
COc1ccc(/C=C2\CN(C(=O)c3ccccn3)C/C(=C\c3ccc(OC)c(OC)c3)C2=O)cc1OC [RUN-108] | 83% of ctrl.
COc1ccc(/C=C2\CC(NC(=O)CN)C/C(=C\c3ccc(OC)c(OC)c3)C2=O)cc1OC.O=C(O)C(F)(F)F (stereo not drawn) [RUN-92] | 90% of ctrl.
COc1ccc(/C=C2\CC(NC(=O)c3ncccc3C)C/C(=C\c3ccc(OC)c(OC)c3)C2=O)cc1OC (stereo not drawn) [RUN-93] | 75% of ctrl.
COc1ccc(/C=C2\CC(NC(=O)CN3CCN(C)CC3)C/C(=C\c3ccc(OC)c(OC)c3)C2=O)cc1OC (stereo not drawn) [RUN-90] | 87% of ctrl.
COc1ccc(/C=C2\CC(NC(=O)Cn3ccnc3)C/C(=C\c3ccc(OC)c(OC)c3)C2=O)cc1OC (stereo not drawn) [RUN-99] | 103% of ctrl.
COc1ccc(/C=C2\CC(NC(=O)CCCN(C)C)C/C(=C\c3ccc(OC)c(OC)c3)C2=O)cc1OC (stereo not drawn) [RUN-91] | 95% of ctrl.
COc1ccc(/C=C2\CC(NC(=O)CCN)C/C(=C\c3ccc(OC)c(OC)c3)C2=O)cc1OC (stereo not drawn) [RUN-104] | 105% of ctrl.
COc1ccc(/C=C2\CN(C(=O)c3ncccc3C)C/C(=C\c3ccc(OC)c(OC)c3)C2=O)cc1OC [RUN-107] | 73%* % of ctrl.
COc1ccc(/C=C2\CN(C(=O)C3CCCN3)C/C(=C\c3ccc(OC)c(OC)c3)C2=O)cc1OC (stereo not drawn) [RUN-113] | 94% of ctrl.
COc1ccc(/C=C2\CN(C(=O)CN3CCOCC3)C/C(=C\c3ccc(OC)c(OC)c3)C2=O)cc1OC.O=C(O)C(F)(F)F [RUN-112] | 81% of ctrl.
COc1ccc(/C=C2\CN(C(=O)Cn3ccnc3)C/C(=C\c3ccc(OC)c(OC)c3)C2=O)cc1OC [RUN-111] | 78% of ctrl.
COc1ccc(/C=C2\CN(C(=O)Cc3c[nH]cn3)C/C(=C\c3ccc(OC)c(OC)c3)C2=O)cc1OC [RUN-109] | 78% of ctrl.

Same assay, conditions: human, 16 h

Structure (SMILES) | Tox [% of ctrl.]
COc1ccc(/C=C2\CN(C(=O)C34CCN(CC3)CC4)C/C(=C\c3ccc(OC)c(OC)c3)C2=O)cc1OC [RUN-83] | 87% of ctrl.
